In US10112929B2, “Lactams as inhibitors of rock” (BRISTOL-MYERS SQUIBB COMPANY, priority 2015, dated 2018):

biological target: ROCK2 (Homo sapiens (Human), UniProt O75116); assay: biochemical
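Further: rho kinase enzyme reaction halted with EDTA, phospho- and non-phospho peptide separated for read-out, kinase activity inhibition derived across a dose-response series, DMSO under 2%.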

Sequence of ROCK2 (O75116 whole entry, species assumed): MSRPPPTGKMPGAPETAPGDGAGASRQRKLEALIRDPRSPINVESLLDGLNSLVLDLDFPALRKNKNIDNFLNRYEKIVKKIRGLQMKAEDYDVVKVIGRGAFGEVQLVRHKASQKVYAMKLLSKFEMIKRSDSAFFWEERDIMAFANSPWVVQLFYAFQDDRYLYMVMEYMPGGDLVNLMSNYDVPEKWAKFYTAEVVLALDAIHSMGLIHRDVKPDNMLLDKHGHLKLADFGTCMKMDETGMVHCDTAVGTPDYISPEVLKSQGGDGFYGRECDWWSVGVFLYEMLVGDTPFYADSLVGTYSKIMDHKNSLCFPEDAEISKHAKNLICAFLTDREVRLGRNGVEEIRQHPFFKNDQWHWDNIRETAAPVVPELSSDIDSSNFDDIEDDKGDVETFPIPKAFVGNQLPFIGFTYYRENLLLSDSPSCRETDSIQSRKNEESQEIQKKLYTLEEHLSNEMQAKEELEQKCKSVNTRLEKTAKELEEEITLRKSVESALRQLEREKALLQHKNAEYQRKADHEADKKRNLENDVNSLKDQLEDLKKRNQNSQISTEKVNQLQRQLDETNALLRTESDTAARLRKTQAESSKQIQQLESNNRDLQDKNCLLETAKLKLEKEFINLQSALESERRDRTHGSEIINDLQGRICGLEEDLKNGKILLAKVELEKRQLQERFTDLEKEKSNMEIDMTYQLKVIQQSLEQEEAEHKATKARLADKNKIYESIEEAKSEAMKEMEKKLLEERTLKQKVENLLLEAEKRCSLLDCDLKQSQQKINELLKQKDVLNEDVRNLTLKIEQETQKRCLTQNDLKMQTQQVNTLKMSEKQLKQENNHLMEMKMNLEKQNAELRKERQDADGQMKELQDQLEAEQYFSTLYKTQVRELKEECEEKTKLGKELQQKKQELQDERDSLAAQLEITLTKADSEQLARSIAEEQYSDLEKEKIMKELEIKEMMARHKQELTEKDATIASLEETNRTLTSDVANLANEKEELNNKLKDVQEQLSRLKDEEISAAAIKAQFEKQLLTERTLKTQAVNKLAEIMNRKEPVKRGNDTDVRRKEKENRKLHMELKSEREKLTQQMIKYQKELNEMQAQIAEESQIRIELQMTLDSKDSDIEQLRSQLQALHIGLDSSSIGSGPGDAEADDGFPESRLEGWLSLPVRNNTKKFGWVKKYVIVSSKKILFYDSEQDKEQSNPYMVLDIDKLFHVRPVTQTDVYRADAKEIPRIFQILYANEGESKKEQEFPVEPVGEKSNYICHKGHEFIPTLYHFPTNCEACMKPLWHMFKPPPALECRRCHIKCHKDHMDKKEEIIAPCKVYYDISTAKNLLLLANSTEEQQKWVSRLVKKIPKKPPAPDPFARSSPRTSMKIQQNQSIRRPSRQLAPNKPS

Compared with O=C1C(Cc2ccccc2F)CCN1c1ccc(-c2cn[nH]c2)cc1 (centres unmarked) [Example 96, 1-(4-(1H-pyrazol-4-yl)phenyl)-3-(2-fluorobenzyl)pyrrolidin-2-one], O=C1C(Nc2cccc(OC(F)F)c2)CCN1c1ccc(-c2cn[nH]c2)cc1 (single isomer, unassigned) [Example 232, 1-(4-(1H-pyrazol-4-yl)phenyl)-3-((3-(difluoromethoxy)phenyl)amino) pyrrolidin-2-one] is lower in IC50: 10 to 100 nM for the first, < 10 nM for the second.

COc1cccc(NC2CCN(c3ccc(-c4ccnc5[nH]ccc45)cc3)C2=O)c1 (single isomer, unassigned) [Example 80, 1-(4-(1H-pyrrolo[2,3-b]pyridin-4-yl)phenyl)-3-((3-methoxyphenyl)amino) pyrrolidin-2-one] and COc1cccc(NC2CCN(c3ccc(-c4cn[nH]c4)c(C(N)=O)c3)C2=O)c1 (single isomer, unassigned) [Example 130, 5-(3-((3-Methoxyphenyl)amino)-2-oxopyrrolidin-1-yl)-2-(1H-pyrazol-4-yl)benzamide] fall in the same range of IC50: 100 to 2200 nM for the first, 100 to 2200 nM for the second.

First: COc1cc(N2CCC(Nc3ccccc3)C2=O)ccc1-c1cn[nH]c1 (centres unmarked) [Example 67, 1-(3-methoxy-4-(1H-pyrazol-4-yl)phenyl)-3-(phenylamino)pyrrolidin-2-one]
Second: COc1cc(N2CCC(Nc3cccc(OC(F)(F)F)c3)C2=O)ccc1-c1cn[nH]c1 (centres unmarked) [Example 70, 1-(3-methoxy-4-(1H-pyrazol-4-yl)phenyl)-3-((3-(trifluoromethoxy)phenyl)amino)pyrrolidin-2-one]
The IC50 of the first is lower: < 10 nM for the first, 100 to 2200 nM for the second. The first is the more potent here.

COc1nc(N2CCC(N(C)C3CCN(C)CC3)C2=O)ccc1-c1cn[nH]c1 (racemic) [Example 279, 1-(6-methoxy-5-(1H-pyrazol-4-yl)pyridin-2-yl)-3-(methyl(1-methylpiperidin-4-yl)amino)pyrrolidin-2-one] and COc1nc(N2CCC(N3CCC(N(C)C)CC3)C2=O)ccc1-c1cn[nH]c1 (racemic) [Example 276, 3-(4-(dimethylamino)piperidin-1-yl)-1-(6-methoxy-5-(1H-pyrazol-4-yl)pyridin-2-yl)pyrrolidin-2-one] fall in the same range of IC50: 100 to 2200 nM for the first, 100 to 2200 nM for the second.

First: COc1cccc(NC2CCN(c3ccc(-c4cn[nH]c4)c(C)n3)C2=O)c1 (single isomer, unassigned) [Example 188, 3-((3-methoxyphenyl)amino)-1-(6-methyl-5-(1H-pyrazol-4-yl)pyridin-2-yl)pyrrolidin-2-one]
Second: COc1cccc(NC2CCN(c3ccc(-c4cn[nH]c4)cn3)C2=O)c1 (single isomer, unassigned) [Example 85, 1-(5-(1H-pyrazol-4-yl)pyridin-2-yl)-3-((3-methoxyphenyl)amino)pyrrolidin-2-one]
The IC50 of the first is higher: 10 to 100 nM for the first, < 10 nM for the second. The second is the more potent here.

Compared with COc1ccc(F)c(NC2CCN(c3ccc(-c4cn[nH]c4)cc3F)C2=O)c1 (single isomer, unassigned) [Example 341, 1-(2-fluoro-4-(1H-pyrazol-4-yl)phenyl)-3-((2-fluoro-5-methoxyphenyl)amino) pyrrolidin-2-one], COc1cc(NC2CCN(c3cc(F)c(-c4cn[nH]c4)cc3F)C2=O)ccc1F (single isomer, unassigned) [Example 350, 1-(2,5-difluoro-4-(1H-pyrazol-4-yl)phenyl)-3-((4-fluoro-3-methoxyphenyl)amino)pyrrolidin-2-one] is higher in IC50: 10 to 100 nM for the first, 100 to 2200 nM for the second.

CCc1cc(N2CCC(Nc3cccc(OCC4CC4)c3)C2=O)ccc1-c1cn[nH]c1 (single isomer, unassigned) [Example 248, 3-((3-(cyclopropylmethoxy)phenyl)amino)-1-(3-ethyl-4-(1H-pyrazol-4-yl)phenyl)pyrrolidin-2-one] and COc1cccc(N[C@@H]2CCN(c3ccc(-c4cn[nH]c4)cc3)C2=O)c1OC [Example 385, (R)-1-(4-(1H-pyrazol-4-yl)phenyl)-3-((2,3-dimethoxyphenyl)amino)pyrrolidin-2-one] fall in the same range of IC50: 100 to 2200 nM for the first, 100 to 2200 nM for the second.
